Results reported in ChEMBL document CHEMBL1201862, “PubChem BioAssay data set” (2004).
The source made the active and inactive calls.

Experiments:
[1] = mouse fibroblast viability loss – cell-based, cherry-pick samples, set 2, cytotoxicity control for T. cruzi growth inhibitor project, dose response (AID 651817); type: functional; settings: NIH3T3
[2] = target: T1, Dual specificity protein phosphatase 6 (Rattus norvegicus, UniProt Q64346); type: functional
T1 sequence (Q64346 whole entry): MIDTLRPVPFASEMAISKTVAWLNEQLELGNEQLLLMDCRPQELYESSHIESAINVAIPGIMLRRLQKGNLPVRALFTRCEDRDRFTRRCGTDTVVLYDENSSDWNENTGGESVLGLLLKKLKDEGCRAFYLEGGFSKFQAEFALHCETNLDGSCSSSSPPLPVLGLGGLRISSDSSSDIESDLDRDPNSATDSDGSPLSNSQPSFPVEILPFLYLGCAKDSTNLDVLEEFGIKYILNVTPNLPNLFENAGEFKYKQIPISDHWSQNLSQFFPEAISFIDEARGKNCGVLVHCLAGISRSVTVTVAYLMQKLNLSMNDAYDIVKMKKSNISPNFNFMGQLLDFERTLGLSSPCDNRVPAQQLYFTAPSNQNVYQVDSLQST

[3] = target: T2, Small ubiquitin-related modifier 1 (Homo sapiens, UniProt P63165); experiment: SUMO1 protein interaction blockers, potency – biochemical, fluorescence polarization, uHTS hits, dose response (AID 624382); type: functional; settings: read-out: IC50_Mean
T2 sequence (P63165 whole entry): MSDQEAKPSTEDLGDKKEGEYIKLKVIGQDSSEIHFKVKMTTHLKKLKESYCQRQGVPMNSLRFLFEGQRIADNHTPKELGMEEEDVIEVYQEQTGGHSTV

[4] = target: Heat shock 70 kDa protein 1A (Homo sapiens, UniProt P0DMV8); experiment: inhibition of Hsp70 binding activity – biochemical, fluorescence polarization, SAR follow-up (AID 1072)
Heat shock 70 kDa protein 1A, sequence (P0DMV8 whole entry): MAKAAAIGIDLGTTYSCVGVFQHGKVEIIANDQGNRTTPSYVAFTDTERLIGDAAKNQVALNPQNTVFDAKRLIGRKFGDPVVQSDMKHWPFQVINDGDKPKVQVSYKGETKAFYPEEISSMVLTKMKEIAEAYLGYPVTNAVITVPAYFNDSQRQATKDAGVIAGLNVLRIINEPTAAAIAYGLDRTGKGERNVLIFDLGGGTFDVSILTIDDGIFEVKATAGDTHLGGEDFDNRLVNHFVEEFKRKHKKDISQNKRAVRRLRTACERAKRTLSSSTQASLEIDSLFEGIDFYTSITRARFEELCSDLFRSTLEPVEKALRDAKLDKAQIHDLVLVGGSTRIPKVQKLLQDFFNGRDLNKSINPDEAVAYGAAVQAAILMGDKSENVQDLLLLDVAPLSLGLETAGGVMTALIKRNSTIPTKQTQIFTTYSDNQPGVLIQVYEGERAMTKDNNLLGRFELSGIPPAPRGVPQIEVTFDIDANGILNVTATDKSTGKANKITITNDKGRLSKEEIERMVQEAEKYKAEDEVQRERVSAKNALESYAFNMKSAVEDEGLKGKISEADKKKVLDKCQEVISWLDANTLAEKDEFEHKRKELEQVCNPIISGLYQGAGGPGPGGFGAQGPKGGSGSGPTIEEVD

[5] = target: T3, Tyrosine-protein phosphatase non-receptor type 7 (Homo sapiens, UniProt P35236); type: functional
T3 sequence (P35236 whole entry): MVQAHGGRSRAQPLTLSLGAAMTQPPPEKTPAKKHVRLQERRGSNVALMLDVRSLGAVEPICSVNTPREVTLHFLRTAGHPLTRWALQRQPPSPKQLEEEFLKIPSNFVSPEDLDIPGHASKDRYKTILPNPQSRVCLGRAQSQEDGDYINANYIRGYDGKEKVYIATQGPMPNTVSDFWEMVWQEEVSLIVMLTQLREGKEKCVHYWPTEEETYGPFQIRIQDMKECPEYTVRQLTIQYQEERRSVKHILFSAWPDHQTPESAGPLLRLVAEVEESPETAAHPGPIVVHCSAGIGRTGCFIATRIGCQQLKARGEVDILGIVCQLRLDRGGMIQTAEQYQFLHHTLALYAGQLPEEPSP

[6] = target: T1, Dual specificity protein phosphatase 6
[7] = target: Heat shock cognate 71 kDa protein (Homo sapiens, UniProt P11142); experiment: In Vitro Hsc70 Dose Response Fluorescence Polarization Assay. [Related pubchem assays: 1072 ]
Heat shock cognate 71 kDa protein, sequence (P11142 whole entry): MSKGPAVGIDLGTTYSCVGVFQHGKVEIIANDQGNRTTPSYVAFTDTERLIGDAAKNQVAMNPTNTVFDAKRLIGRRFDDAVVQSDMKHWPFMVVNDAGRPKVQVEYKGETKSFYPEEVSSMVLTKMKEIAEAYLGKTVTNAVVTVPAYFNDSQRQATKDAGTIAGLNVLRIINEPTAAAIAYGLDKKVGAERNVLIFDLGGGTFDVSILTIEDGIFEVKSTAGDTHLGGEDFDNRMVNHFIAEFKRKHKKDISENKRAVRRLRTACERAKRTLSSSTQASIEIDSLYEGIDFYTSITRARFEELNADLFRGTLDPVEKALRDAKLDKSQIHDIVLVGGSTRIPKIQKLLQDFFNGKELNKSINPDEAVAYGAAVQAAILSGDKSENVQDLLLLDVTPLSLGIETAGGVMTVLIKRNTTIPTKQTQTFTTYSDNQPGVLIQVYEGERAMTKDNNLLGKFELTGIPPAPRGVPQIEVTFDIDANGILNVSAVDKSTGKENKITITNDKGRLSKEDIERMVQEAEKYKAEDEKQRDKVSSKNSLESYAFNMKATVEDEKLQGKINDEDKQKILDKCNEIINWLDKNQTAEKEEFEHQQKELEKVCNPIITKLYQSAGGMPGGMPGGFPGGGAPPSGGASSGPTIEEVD

[8] = target: Glyceraldehyde-3-phosphate dehydrogenase (Homo sapiens, UniProt P04406)
Glyceraldehyde-3-phosphate dehydrogenase, sequence (P04406 whole entry): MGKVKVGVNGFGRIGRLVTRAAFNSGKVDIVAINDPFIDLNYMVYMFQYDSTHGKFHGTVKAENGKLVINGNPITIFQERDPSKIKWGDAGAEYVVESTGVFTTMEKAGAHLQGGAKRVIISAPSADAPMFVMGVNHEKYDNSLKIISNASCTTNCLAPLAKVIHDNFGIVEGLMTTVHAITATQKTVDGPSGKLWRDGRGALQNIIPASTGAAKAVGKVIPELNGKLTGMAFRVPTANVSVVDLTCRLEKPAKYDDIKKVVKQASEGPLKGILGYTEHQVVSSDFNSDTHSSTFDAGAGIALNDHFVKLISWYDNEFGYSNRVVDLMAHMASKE

[9] = target: T4, Small ubiquitin-related modifier 2 (Homo sapiens, UniProt P61956); experiment: SUMO2 binding disruption by SUMO1 hits – biochemical, FRET, human SUMO2, uHTS hits, selectivity assay for SUMO1 interaction inhibitor project, dose response (AID 624384); type: functional; settings: read-out: IC50_Mean
T4 sequence (P61956 whole entry): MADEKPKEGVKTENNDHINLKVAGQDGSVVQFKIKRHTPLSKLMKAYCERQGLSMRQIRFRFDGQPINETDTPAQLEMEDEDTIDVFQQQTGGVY

[10] = target: T5, Rac GTPase-activating protein 1 (Homo sapiens, UniProt Q9H0H5); experiment: blockers of MgcRacGAP-driven Rac1 GTP hydrolysis – biochemical, ADP Hunter fluorescence, primary and confirmatory, confirmation (AID 624330); type: functional
T5 sequence (Q9H0H5 whole entry): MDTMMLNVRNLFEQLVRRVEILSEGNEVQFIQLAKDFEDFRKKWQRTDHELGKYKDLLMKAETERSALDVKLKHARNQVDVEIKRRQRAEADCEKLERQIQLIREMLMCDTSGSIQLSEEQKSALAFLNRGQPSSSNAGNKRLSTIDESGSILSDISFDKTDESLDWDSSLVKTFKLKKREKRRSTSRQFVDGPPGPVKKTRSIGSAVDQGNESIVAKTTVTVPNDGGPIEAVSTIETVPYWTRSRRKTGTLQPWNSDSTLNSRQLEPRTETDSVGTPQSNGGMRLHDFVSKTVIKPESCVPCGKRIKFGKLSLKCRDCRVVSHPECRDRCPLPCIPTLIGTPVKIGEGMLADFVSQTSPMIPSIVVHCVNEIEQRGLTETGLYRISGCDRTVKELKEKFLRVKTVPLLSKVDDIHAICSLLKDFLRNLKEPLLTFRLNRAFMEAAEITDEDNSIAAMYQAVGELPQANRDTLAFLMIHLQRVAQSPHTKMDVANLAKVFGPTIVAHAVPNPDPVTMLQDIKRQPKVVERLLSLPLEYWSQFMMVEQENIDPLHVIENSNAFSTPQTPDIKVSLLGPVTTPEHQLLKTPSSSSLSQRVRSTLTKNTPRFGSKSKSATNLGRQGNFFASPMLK

[11] = target: T2, Small ubiquitin-related modifier 1; experiment: SUMO1 protein-protein binding blockers, potency – biochemical, FRET, dose response (AID 624383); type: functional; settings: read-out: IC50_Mean
ORF 73 = target: T6, ORF 73 (Human herpesvirus 8, UniProt O40947); experiment: KSHV LANA DNA-binding disruption – biochemical, fluorescence polarization, cherry-picked samples, dose response (AID 504725); set-up: species or system Human gammaherpesvirus 8;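 note: fluorescence polarization of a labeled DNA duplex reporting LANA DNA binding; potency is for inhibitors that block LANA binding to the DNA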
T6 sequence (O40947 whole entry): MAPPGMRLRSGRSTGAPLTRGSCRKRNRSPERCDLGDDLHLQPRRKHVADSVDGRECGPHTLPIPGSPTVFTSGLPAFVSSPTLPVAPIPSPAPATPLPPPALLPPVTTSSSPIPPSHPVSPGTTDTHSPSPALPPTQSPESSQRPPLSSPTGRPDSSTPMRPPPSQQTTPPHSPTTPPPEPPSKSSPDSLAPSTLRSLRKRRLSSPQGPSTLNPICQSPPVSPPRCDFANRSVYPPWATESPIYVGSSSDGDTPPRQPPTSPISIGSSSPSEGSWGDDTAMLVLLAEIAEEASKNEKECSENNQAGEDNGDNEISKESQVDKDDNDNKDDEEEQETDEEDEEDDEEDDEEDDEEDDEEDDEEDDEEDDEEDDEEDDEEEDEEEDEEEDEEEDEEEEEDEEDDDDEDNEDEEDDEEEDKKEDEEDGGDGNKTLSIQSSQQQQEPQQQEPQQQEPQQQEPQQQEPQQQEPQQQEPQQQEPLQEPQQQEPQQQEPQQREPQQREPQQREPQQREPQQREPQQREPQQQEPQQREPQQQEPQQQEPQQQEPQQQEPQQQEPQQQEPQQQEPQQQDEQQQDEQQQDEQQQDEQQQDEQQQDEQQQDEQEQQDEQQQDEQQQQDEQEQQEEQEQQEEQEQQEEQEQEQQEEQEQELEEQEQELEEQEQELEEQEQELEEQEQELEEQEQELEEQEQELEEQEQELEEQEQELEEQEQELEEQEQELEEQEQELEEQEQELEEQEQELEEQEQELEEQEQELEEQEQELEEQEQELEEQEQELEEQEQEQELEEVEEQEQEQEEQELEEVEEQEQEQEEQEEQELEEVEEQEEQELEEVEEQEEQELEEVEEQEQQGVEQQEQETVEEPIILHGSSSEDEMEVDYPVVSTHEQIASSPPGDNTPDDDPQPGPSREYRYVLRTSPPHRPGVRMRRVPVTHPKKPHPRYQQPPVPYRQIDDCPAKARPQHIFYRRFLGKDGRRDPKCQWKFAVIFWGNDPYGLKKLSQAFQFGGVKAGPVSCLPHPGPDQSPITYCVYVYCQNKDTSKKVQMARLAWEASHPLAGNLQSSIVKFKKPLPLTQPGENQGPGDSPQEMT

NS3 = NS3 (Hepatitis C virus, UniProt A3EZJ3); experiment: PubChem AID 2173; set-up: species or system Hepacivirus hominis
NS3, sequence (A3EZJ3 whole entry): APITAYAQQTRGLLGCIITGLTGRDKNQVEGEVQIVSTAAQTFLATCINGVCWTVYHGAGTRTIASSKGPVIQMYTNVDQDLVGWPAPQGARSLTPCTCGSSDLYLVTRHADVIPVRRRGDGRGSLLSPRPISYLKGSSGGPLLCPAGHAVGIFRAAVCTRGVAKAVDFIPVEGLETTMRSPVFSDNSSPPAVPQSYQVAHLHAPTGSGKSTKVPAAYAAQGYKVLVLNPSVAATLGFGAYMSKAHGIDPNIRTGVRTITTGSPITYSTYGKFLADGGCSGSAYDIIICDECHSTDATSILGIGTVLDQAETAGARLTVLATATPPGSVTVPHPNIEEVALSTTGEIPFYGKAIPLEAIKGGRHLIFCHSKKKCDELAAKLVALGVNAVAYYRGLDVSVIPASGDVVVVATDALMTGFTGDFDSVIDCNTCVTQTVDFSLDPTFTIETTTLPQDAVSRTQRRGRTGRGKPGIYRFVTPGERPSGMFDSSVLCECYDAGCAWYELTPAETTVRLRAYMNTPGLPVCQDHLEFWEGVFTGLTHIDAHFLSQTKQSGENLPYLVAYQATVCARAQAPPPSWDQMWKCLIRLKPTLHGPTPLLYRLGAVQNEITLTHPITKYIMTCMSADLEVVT

[12] = target: T4, Small ubiquitin-related modifier 2; experiment: disruption of SUMO2 interaction with SIM peptide – biochemical, fluorescence polarization, uHTS hits, selectivity assay for SUMO1 interaction inhibitor project, dose response (AID 624385); type: functional; settings: read-out: IC50_Mean
HeLa [13] = experiment: viability loss in HeLa cells – cell-based, 24 h, cherry-picked samples, cytotoxicity control, dose response (AID 504726); type: functional; settings: Homo sapiens;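 note: potency for cytotoxicity as loss of luminescence signal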
Large T antigen = Large T antigen (Simian virus 40, UniProt P03070); type: functional, Betapolyomavirus macacae;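 note: Confirmatory-stage PubChem screen for compounds that inhibit SV40 T antigen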
Large T antigen, sequence (P03070 whole entry): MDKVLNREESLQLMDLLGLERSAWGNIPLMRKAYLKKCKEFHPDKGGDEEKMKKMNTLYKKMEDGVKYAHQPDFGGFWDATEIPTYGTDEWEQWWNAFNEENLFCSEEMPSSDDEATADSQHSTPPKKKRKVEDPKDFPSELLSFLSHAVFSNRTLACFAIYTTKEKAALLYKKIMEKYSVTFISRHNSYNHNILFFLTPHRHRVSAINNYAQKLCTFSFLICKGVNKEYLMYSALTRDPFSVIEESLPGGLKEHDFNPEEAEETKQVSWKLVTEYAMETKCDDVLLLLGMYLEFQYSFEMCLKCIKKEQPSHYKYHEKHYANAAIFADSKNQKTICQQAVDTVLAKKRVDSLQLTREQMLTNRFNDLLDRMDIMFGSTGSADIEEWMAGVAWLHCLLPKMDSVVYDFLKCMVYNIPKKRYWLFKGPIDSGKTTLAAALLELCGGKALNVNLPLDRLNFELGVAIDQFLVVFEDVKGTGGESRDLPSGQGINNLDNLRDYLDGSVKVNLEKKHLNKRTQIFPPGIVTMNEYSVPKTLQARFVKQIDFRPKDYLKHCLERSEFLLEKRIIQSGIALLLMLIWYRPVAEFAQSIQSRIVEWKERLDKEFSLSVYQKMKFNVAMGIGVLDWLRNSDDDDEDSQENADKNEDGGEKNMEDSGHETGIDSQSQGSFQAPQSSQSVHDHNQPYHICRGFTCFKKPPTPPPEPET

Bcl-2-like protein 10 = target: T7, Bcl-2-like protein 10 (Homo sapiens, UniProt Q9HD36); experiment: Bcl-B/TR3 peptide binding disruption – biochemical, fluorescence polarization, FITC-TR3 peptide, selectivity assay for Bfl-1 inhibitor project, primary screen (AID 748);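 note: fluorescence polarization from a fluorescein-labelled TR3 peptide binding purified Bcl-B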
T7 sequence (Q9HD36 whole entry): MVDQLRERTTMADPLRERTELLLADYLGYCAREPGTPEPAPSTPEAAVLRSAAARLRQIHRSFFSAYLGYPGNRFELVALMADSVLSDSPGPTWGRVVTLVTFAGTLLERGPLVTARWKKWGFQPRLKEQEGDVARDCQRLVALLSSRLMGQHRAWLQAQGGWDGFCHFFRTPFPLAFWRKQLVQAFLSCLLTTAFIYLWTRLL

[14] = target: Matrix metalloproteinase-14 (Homo sapiens, UniProt P50281); experiment: Dose Response confirmation of uHTS hits for a small molecule inhibitors of MT1-MMP activation in a fluorescence assay set 1.; type: functional
[15] = target: Botulinum neurotoxin type F (Clostridium botulinum, UniProt P30996); experiment: High-throughput multiplex microsphere dose response for inhibitors of toxin protease, specifically Botulinum neurotoxin light chain F protease, compounds from Cherry Pick 02.; type: functional; settings: read-out: EC50_MICROM
Botulinum neurotoxin type F, sequence (P30996 1-436 limits assumed): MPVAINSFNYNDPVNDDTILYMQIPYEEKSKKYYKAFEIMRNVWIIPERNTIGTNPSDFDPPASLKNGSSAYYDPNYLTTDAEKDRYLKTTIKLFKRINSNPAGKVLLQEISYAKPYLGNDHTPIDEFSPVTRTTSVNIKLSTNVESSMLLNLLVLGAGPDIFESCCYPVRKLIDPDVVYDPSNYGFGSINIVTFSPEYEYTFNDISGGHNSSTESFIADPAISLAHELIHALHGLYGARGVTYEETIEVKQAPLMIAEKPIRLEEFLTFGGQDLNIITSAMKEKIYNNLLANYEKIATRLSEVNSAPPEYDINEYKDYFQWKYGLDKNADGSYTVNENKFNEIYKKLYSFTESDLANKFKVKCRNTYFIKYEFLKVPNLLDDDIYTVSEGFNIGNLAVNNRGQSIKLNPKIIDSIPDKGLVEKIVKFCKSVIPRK

Vero = experiment: viability loss in Vero cells – cell-based, plate reader, cherry-pick samples, cytotoxicity control, dose response (AID 687020); type: functional; settings: Chlorocebus sabaeus
[16] = off-target signal loss in HeLa-CEM21 co-culture – HeLa F-luc CTL cells, cherry-picked, counter-screen for HIV-1 Env fusion inhibitor project, dose response (AID 652040); type: functional, cell-based;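 note: potency for signal decrease marking cytotoxic or nonspecific inhibition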
[17] = viability loss in CEM21 cells – cell-based, CellTiter-Glo luminescence, cherry-picked, cytotoxicity control for viral fusion inhibitor project, dose response (AID 652042); type: functional;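 note: potency for signal decrease meaning cytotoxicity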
HepG2 = experiment: viability loss in HepG2 hepatoma cells – cell-based, cherry-picks, set 2, cytotoxicity control, dose response (AID 687002); type: functional; settings: Homo sapiens
HeLa [18] = experiment: viability loss in HeLa cells – cell-based, ATP luminescence, cherry-pick samples, cytotoxicity control, dose response (AID 687004); type: functional; settings: Homo sapiens
[19] = target: T8, Zinc finger protein mex-5 (Caenorhabditis elegans, UniProt Q9XUB2); experiment: potency of MEX-5 RNA-binding blockers – biochemical, C. elegans, fluorescence polarization, dose response (AID 1960)
T8 sequence (Q9XUB2 whole entry): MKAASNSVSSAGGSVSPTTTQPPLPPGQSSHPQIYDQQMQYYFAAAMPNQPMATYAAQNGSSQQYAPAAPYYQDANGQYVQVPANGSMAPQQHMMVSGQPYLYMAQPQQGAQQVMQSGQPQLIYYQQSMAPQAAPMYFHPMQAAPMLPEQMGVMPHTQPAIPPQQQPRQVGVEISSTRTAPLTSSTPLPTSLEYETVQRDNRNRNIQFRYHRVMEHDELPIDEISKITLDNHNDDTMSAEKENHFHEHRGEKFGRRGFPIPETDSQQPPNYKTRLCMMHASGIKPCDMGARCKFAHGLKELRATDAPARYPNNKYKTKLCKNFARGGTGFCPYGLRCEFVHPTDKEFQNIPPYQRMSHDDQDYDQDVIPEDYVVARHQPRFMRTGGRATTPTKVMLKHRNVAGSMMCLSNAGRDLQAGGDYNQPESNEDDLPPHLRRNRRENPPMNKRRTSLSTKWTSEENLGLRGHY

[20] = target: 5-hydroxytryptamine receptor 2A (Mus musculus, UniProt P35363); type: functional, cell-based;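 note: CHO-K1 cells with tagged receptor and beta-arrestin; agonist potency measured as compound-induced activation of the receptor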
5-hydroxytryptamine receptor 2A, sequence (P35363 whole entry): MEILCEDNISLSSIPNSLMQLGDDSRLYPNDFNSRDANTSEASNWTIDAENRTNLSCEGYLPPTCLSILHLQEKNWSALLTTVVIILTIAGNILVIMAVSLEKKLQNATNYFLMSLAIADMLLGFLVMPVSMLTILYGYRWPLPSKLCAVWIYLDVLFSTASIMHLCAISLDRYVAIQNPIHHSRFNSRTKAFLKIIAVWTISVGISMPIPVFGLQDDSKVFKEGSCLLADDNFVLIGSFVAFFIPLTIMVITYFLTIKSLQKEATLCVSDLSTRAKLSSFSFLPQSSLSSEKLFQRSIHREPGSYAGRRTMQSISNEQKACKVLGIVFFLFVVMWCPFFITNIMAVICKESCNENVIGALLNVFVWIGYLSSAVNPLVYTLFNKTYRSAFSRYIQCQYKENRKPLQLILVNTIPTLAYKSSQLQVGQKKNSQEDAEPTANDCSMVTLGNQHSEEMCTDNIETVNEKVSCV

Mu-type opioid receptor = Mu-type opioid receptor (Homo sapiens, UniProt P35372); type: functional, cell-based;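 note: U2OS cells with beta-arrestin recruitment to OPRM1 by beta-gal complementation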
Mu-type opioid receptor, sequence (P35372 whole entry, the tested form may be a part): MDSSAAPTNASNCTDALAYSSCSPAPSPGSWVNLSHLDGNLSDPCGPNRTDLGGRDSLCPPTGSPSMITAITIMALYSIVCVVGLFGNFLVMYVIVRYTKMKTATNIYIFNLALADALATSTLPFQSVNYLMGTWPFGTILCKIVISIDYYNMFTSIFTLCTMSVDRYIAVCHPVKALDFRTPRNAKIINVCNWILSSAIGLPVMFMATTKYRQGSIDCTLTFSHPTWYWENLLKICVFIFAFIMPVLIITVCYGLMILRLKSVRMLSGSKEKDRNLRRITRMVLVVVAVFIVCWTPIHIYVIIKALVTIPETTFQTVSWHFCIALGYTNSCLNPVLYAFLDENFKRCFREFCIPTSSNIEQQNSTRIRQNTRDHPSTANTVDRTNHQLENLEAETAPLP

[21] = target: T9, RNA-binding protein pos-1 (Caenorhabditis elegans, UniProt G5EF15); experiment: disruptors of C. elegans POS-1 RNA interaction – biochemical, fluorescence polarization, dose response (AID 1964);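 note: purified POS-1 fused to maltose binding protein made in E. coli; potency of compounds blocking POS-1 binding to fluorescent RNA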
T9 sequence (G5EF15 whole entry): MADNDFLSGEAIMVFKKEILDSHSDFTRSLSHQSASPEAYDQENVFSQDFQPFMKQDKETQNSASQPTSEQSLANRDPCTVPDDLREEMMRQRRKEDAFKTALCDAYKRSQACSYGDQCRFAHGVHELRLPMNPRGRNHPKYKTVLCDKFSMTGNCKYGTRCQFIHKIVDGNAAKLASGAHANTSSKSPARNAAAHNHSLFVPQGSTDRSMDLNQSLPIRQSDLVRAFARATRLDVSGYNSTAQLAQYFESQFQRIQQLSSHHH

SMILES: Cc1ccc(S(=O)(=O)Nc2ccc3c(c2)CC(=O)N([C@@H](C)CO)C[C@@H](C)[C@H](CN(C)S(=O)(=O)c2ccc(Cl)cc2)O3)cc1
- AC50 [1]: 17.8 µM (active)

SMILES: Cc1cc(C)c2c(c1)NC(C(=O)O)C1CC=CC21 (centres undefined)
- IC50 [2]: 46.1 µM (active)
- IC50 [3]: 4.97 µM (active)
- IC50 [4]: > 100 µM (not active)
- IC50 [5]: > 100 µM (not active)
- IC50 [6]: 41.3 µM (active)
- IC50 [7]: > 100 µM (not active)
- IC50 [8]: 91.4 µM (active)
- IC50 [9]: 3.69 µM (active)
- IC50 [10]: 171 µM (active)
- IC50 [11]: 22.8 µM (inactive)
- AC50 (ORF 73): 61.2 µM (active)
- IC50 (NS3): 3.67 µM (active)
- IC50 [12]: 13.4 µM (active)
- AC50 (HeLa [13]): 264 µM (active)
- IC50 (Large T antigen): 26.8 µM (active)

SMILES: C/C(=C/c1oc2ccc(O)cc2c1[N+](=O)[O-])N(C)C
- IC50 (Bcl-2-like protein 10): > 100 µM (inactive)
- IC50 [14]: 13.3 µM (active)
- IC50 (Large T antigen): 9.41 µM (active)

SMILES: Cc1cc2ccccc2n1CCNC(=O)Cc1ccccc1
- EC50 [15]: 2.9 µM (active)

SMILES: C=CCOc1ccccc1CN1CCC(Cc2ccccc2)CC1
- AC50 (Vero): 35 µM (active)

SMILES: CCc1nc(N2CCCCC2C)c2oc3ccccc3c2n1 (centres undefined)
- AC50 [16]: 49.6 µM (active)
- AC50 [17]: 36.2 µM (active)
- AC50 (HepG2): 14.2 µM (active)
- AC50 (HeLa [18]): 11.7 µM (active)

SMILES: Cc1ccccc1-c1ccc(/C=C2/SC(N3CCOCC3)=NC2=O)o1
- EC50 [19]: 69.6 µM (active)
- EC50 [20]: 6.39 µM (active)
- EC50 (Mu-type opioid receptor): 92.5 µM (inactive)
- EC50 [21]: 26.1 µM (inconclusive)
